In patent US12201610B2, “Compositions comprising aticaprant” (Janssen Pharmaceuticals, Inc., priority 2022, dated 2025):

Tested on: subjects with MDD
Test: MADRS total score, adjunctive aticaprant vs placebo in MDD (Example 6)
[1] = eITT Analysis Set, High anhedonia, Treatment Week 1
[2] = eITT Analysis Set, High anhedonia, Treatment Week 3
[3] = eITT Analysis Set, High anhedonia, Treatment Week 4
[4] = eITT Analysis Set, High anhedonia, Treatment Week 5
[5] = eITT Analysis Set, High anhedonia, Treatment Week 6
[6] = eITT Analysis Set, Low anhedonia, Treatment Week 1
[7] = eITT Analysis Set, Low anhedonia, Treatment Week 3
[8] = eITT Analysis Set, Low anhedonia, Treatment Week 4
[9] = eITT Analysis Set, Low anhedonia, Treatment Week 5
[10] = eITT Analysis Set, Low anhedonia, Treatment Week 6
[11] = eITT, Treatment Week 1, 10 mg adjunctive to SSRI/SNRI
[12] = eITT, Treatment Week 3, 10 mg adjunctive to SSRI/SNRI
[13] = eITT, Treatment Week 4, 10 mg adjunctive to SSRI/SNRI
[14] = eITT, Treatment Week 5, 10 mg adjunctive to SSRI/SNRI
[15] = eITT, Treatment Week 6, 10 mg adjunctive to SSRI/SNRI

Q: Which “Change from Treatment Baseline in MADRS Total Score, Least Squares Mean (Standard Error)” value (Treatment Week 6, both responders and non-responders during placebo lead-in, 10 mg) does the source give for `Cc1cc(C)cc(C2CCCN2Cc2ccc(Oc3ccc(C(N)=O)cc3F)cc2)c1` (stereo not drawn) [aticaprant, 3-fluoro-4-4-2-(3,5-dimethylphenyl)pyrrolidin-1-yl-methylphenoxybenzamide] here?
A: Its value is −9.6 ± 0.79 score on a scale.

Q: And the “MADRS Total Score Least Squares Mean Difference, point estimate” value (Treatment Week 6, both responders and non-responders during placebo lead-in, 10 mg vs placebo)?
A: Its value is −3.1 score on a scale.

Q: And the “MADRS Total Score Effect size” value [1]?
A: The value was −0.39.

Q: And the “MADRS Total Score Mean Change from Baseline (SD)” value [1]?
A: Its value is −4.6 (5.25).

Q: And the “MADRS Total Score Mean Change to Placebo (SD pooled)” value [1]?
A: The value was −1.8 (4.69).

Q: And the “MADRS Total Score Effect size” value [2]?
A: The value was −0.46.

Q: And the “MADRS Total Score Mean Change from Baseline (SD)” value [2]?
A: The value was −6.7 (6.83).

Q: What about the “MADRS Total Score Mean Change to Placebo (SD pooled)” value [2] of the same compound?
A: The value was −3.0 (6.59).

Q: And the “MADRS Total Score Effect size” value [3]?
A: Its value is −0.30.

Q: And the “MADRS Total Score Mean Change from Baseline (SD)” value [3]?
A: The value was −8.5 (7.26).

Q: And the “MADRS Total Score Mean Change to Placebo (SD pooled)” value [3]?
A: The value was −2.2 (7.30).

Q: And the “MADRS Total Score Effect size” value [4]?
A: The value was −0.33.

Q: And the “MADRS Total Score Mean Change from Baseline (SD)” value [4]?
A: The value was −9.7 (8.18).

Q: And the “MADRS Total Score Mean Change to Placebo (SD pooled)” value [4]?
A: Its value is −2.6 (7.93).

Q: What about the “MADRS Total Score Effect size” value [5] of the same compound?
A: Its value is −0.38.

Q: What about the “MADRS Total Score Mean Change from Baseline (SD)” value [5] of the same compound?
A: The value was −11.5 (8.95).

Q: And the “MADRS Total Score Mean Change to Placebo (SD pooled)” value [5]?
A: The value was −3.4 (8.98).

Q: What about the “MADRS Total Score Effect size” value [6] of the same compound?
A: The value was −0.12.

Q: What about the “MADRS Total Score Mean Change from Baseline (SD)” value [6] of the same compound?
A: Its value is −2.3 (5.03).

Q: What about the “MADRS Total Score Mean Change to Placebo (SD pooled)” value [6] of the same compound?
A: Its value is −0.5 (4.30).

Q: What about the “MADRS Total Score Effect size” value [7] of the same compound?
A: Its value is −0.01.

Q: And the “MADRS Total Score Mean Change from Baseline (SD)” value [7]?
A: Its value is −4.9 (5.99).

Q: And the “MADRS Total Score Mean Change to Placebo (SD pooled)” value [7]?
A: Its value is −0.1 (5.85).

Q: What about the “MADRS Total Score Effect size” value [8] of the same compound?
A: The value was 0.01.

Q: What about the “MADRS Total Score Mean Change from Baseline (SD)” value [8] of the same compound?
A: Its value is −6.4 (7.40).

Q: And the “MADRS Total Score Mean Change to Placebo (SD pooled)” value [8]?
A: Its value is 0.0 (6.80).

Q: What about the “MADRS Total Score Effect size” value [9] of the same compound?
A: The value was 0.05.

Q: What about the “MADRS Total Score Mean Change from Baseline (SD)” value [9] of the same compound?
A: Its value is −7.2 (6.46).

Q: What about the “MADRS Total Score Mean Change to Placebo (SD pooled)” value [9] of the same compound?
A: Its value is 0.3 (6.65).

Q: And the “MADRS Total Score Effect size” value [10]?
A: Its value is −0.11.

Q: What about the “MADRS Total Score Mean Change from Baseline (SD)” value [10] of the same compound?
A: Its value is −9.2 (8.01).

Q: And the “MADRS Total Score Mean Change to Placebo (SD pooled)” value [10]?
A: The value was −0.9 (8.13).

Q: And the “MADRS Total Score Change from Baseline LSMean (SE), MMRM” value (“MADRS Total Score Change … (SE), MMRM” for short) [11]?
A: Its value is −3.2.

Q: And the “MADRS Total Score LSMean Difference (SE) Treatment - Placebo, MMRM” value [11]?
A: The value was −1.2 (1.24).

Q: And the “MADRS Total Score Mean (SD)” value [11]?
A: The value was 25.4.

Q: What about the “MADRS Total Score Mean Change from Baseline (SD)” value [11] of the same compound?
A: Its value is −3.3.

Q: And the “MADRS Total Score Mean Change to Placebo (SD pooled)” value [11]?
A: The value was −1.1 (4.52).

Q: What about the “MADRS Total Score Mean Change from Baseline (SD)” value (eITT, Treatment Week 1, 10 mg adjunctive to SSRI/SNRI, listed as Aticaprant) of the same compound?
A: The value was −3.3 (5.21).

Q: What about the “MADRS Total Score Effect size” value (eITT, Treatment Week 1, vs placebo, negative favors aticaprant) of the same compound?
A: Its value is −0.24.

Q: What about the “MADRS Total Score Change … (SE), MMRM” value [12] of the same compound?
A: Its value is −5.6.

Q: What about the “MADRS Total Score LSMean Difference (SE) Treatment - Placebo, MMRM” value [12] of the same compound?
A: Its value is −1.5 (1.25).

Q: What about the “MADRS Total Score Mean (SD)” value [12] of the same compound?
A: The value was 23.1.

Q: And the “MADRS Total Score Mean Change from Baseline (SD)” value [12]?
A: The value was −5.7.

Q: And the “MADRS Total Score Mean Change to Placebo (SD pooled)” value [12]?
A: Its value is −1.4 (6.18).

Q: And the “MADRS Total Score Mean Change from Baseline (SD)” value (eITT, Treatment Week 3, 10 mg adjunctive to SSRI/SNRI, listed as Aticaprant)?
A: Its value is −5.7 (6.38).

Q: What about the “MADRS Total Score Effect size” value (eITT, Treatment Week 3, vs placebo, negative favors aticaprant) of the same compound?
A: The value was −0.22.

Q: And the “MADRS Total Score Change … (SE), MMRM” value [13]?
A: Its value is −7.3.

Q: What about the “MADRS Total Score LSMean Difference (SE) Treatment - Placebo, MMRM” value [13] of the same compound?
A: The value was −1.1 (1.25).

Q: What about the “MADRS Total Score Mean (SD)” value [13] of the same compound?
A: The value was 21.5.

Q: What about the “MADRS Total Score Mean Change from Baseline (SD)” value [13] of the same compound?
A: The value was −7.3.

Q: And the “MADRS Total Score Mean Change to Placebo (SD pooled)” value [13]?
A: The value was −0.9 (7.00).

Q: What about the “MADRS Total Score Mean Change from Baseline (SD)” value (eITT, Treatment Week 4, 10 mg adjunctive to SSRI/SNRI, listed as Aticaprant) of the same compound?
A: Its value is −7.3 (7.35).

Q: What about the “MADRS Total Score Effect size” value (eITT, Treatment Week 4, vs placebo, negative favors aticaprant) of the same compound?
A: The value was −0.14.

Q: What about the “MADRS Total Score Change … (SE), MMRM” value [14] of the same compound?
A: Its value is −8.7.

Q: What about the “MADRS Total Score LSMean Difference (SE) Treatment - Placebo, MMRM” value [14] of the same compound?
A: The value was −1.5 (1.25).

Q: What about the “MADRS Total Score Mean (SD)” value [14] of the same compound?
A: The value was 20.5.

Q: And the “MADRS Total Score Mean Change from Baseline (SD)” value [14]?
A: The value was −8.4.

Q: And the “MADRS Total Score Mean Change to Placebo (SD pooled)” value [14]?
A: The value was −1.1 (7.25).

Q: What about the “MADRS Total Score Mean Change from Baseline (SD)” value (eITT, Treatment Week 5, 10 mg adjunctive to SSRI/SNRI, listed as Aticaprant) of the same compound?
A: Its value is −8.4 (7.36).

Q: And the “MADRS Total Score Effect size” value (eITT, Treatment Week 5, vs placebo, negative favors aticaprant)?
A: Its value is −0.14.

Q: And the “percentage of subjects with MADRS remission (MADRS total score ≤10)” value (eITT, Treatment Week 6)?
A: Its value is 16.9%.

Q: And the “percentage of subjects with ≥30% improvement in MADRS total score” value (eITT, Treatment Week 6)?
A: The value was 57.6%.

Q: What about the “percentage of subjects with ≥50% improvement in MADRS total score” value (eITT, Treatment Week 6) of the same compound?
A: The value was 35.6%.

Q: What about the “MADRS Total Score Change … (SE), MMRM” value [15] of the same compound?
A: The value was −10.1.

Q: What about the “MADRS Total Score Mean (SD)” value [15] of the same compound?
A: Its value is 18.6.

Q: And the “MADRS Total Score Mean Change from Baseline (SD)” value [15]?
A: Its value is −10.2 (8.44).
